Test results as given in patent US20230390315A1, “COMPOSITIONS AND METHODS FOR TREATING ISCHEMIC CONDITIONS” (The Regents of the University of California, priority 2020, published 2023).

Tests used:
BCEC = BCEC transwell migration assay; type: cell-based, bovine; conditions: ManN at 40 uM
Description: HUVECs (passage 6-8) were cultured and serum-starved as described in “Western Blots”. Ten thousand cells in 150 μl of EBM-2 medium were then added to the upper chamber of 8 μm pore size cell culture inserts (Falcon) coated with 0.1% gelatin. The lower compartment was filled with 600 μl EBM-2 medium containing various agents. The plates were incubated at 37° C. to allow migration. After 4 hrs, cells were fixed with 4% PFA for 20 min and then stained with crystal violet (Sigma-Aldrich) for 20 min at RT. Migrated cells on the bottom side of the insert membrane were quantified by counting whole area of the insert at 40× magnification. The experiments were carried out in triplicate and repeated three times. BCEC migration was set up similarly, except that wells were coated with FN, cells were suspended in 1% serum media and migration time was 18-24 hrs.

[1] = tested on: human retinal microvascular EC (hRMECs); experiment: hRMEC proliferation assay; type: cell-based
Description: Proliferation assays with BCECs and BRECs were performed. Log-phase growing BCECs or BRECs (passage <10) were trypsinized, re-suspended and seeded in 96-well plates (no coating) in low-glucose DMEM supplemented with 10% bovine calf serum, 2 mM glutamine, and antibiotics (growth medium), at a density of 1200-1500 cells per well in 200 μl volume. All reagents were added at the indicated final concentrations. After 3-6 days, cells were incubated with AlamarBlue for 4 hrs. Fluorescence was measured at 530 nm excitation wavelength and 590 nm emission wavelength. The experiments were repeated at least three times. To create a hypoxic condition, cells were placed in a hypoxia incubator with a mixture of gas consisting of 1% 02, 5% CO2 and 94% Nz. On each 96-well plate, untreated and VEGF-treated (10/ng/ml) wells were included to monitor plate-to-plate variations. 20% methanol or 0.05% DMSO served as negative controls. 0.05% DMSO served as negative controls when Cas was tested in these cells. Human RMVECs and human adult DMVECs were split into Gelatin-coated 96 wells (2000 cells per well) in low glucose DMEM containing 10% FBS. 1200 cells/well was set up for proliferation assay in low glucose media containing FBS. Data was collected at day 4 or 5. HUVEC (p7-10) were grown on gelatin-coated plate until it reached 70-80% confluency.

[2] = tested on: αv integrin, Neuropilin-1, VE-cadherin and bFGFR1; experiment: Protein mass of other N-glycosylated proteins in BCEC; type: cell-based, bovine
Description: Cells were allowed to reach 80% confluency in 12-well plates. […] At various time points, plates were taken out of the incubator and kept on ice. Cell monolayers were first washed once with ice-cold PBS before lysis with 250 μl of Pierce RIPA buffer (ThermoFisher Scientific, Rockford, IL) or use 50 mM Tris-HCl (pH 7.6), 150 mM NaCl, 10% Glycerol, 1% NP-40 containing protease/Phosphatase inhibitor cocktail (100×) (Cell signaling, #5872). Lysates were collected and mixed with 4×Bolt LDS Sample Buffer (Novex, Carlsbad, CA) in the presence of Halt protease inhibitors and phosphatase inhibitor cocktail (ThermoFisher scientific, #NP0007). The samples were subjected to SDS-PAGE (Bolt 4-12% Bis-Tris Plus, Invitrogen) using Bolt MES SDS running buffer or NuPAGE 3-8% Tris-Acetate gel using Tris-Acetate SDS running buffer (Novex). HUVECs (passage 6-8) were plated in EBM-2 basal medium (Lonza) with 0.2% FBS. […] Equal amounts of protein lysates were analyzed by SDS-PAGE and blotted with the indicated antibodies. Proteins were transferred using Tris-Glycine buffer with 20% Methanol (Proteonomics grade) (Apex BioResearch Products). Membranes were first incubated with 5% milk in TBST, pH 7.6 (TEKnova, Hollister, CA), followed by blotting with primary and secondary antibodies. […]

Calu6 = Calu6 proliferation assay; type: cell-based, human
Description: (§1) Proliferation assays with fibroblasts were done in low-glucose DMEM containing 1% FBS, with or without 10 ng/ml bFGF, or 100 ng/ml human EGF and the assay was ended at day 3. ARPE-19 cells were gently lifted with 0.025% trypsin and plated in RtEGM media (Clonetics) containing 2% FBS, L-glutamine, human bFGF and GA-1000. Once cells were attached to plates, serum-free RtEGM media was used to maintain the cultures. For proliferation assays, 1500 human RPE cells were plated into 96-well plates in low-glucose DMEM containing 1% FBS. A673, U87MG, Calu6 and AML12 cells were grown until confluent and were then harvested and re-suspended in appropriate assay media. For proliferation assays, cells were plated at the density of 1000-2000 cells/well in low-glucose DMEM containing 5% FBS or otherwise stated. Bovine pituitary cells (pituitary folliculostellate cells) were isolated as previously described. For proliferation assays with human epidermal keratinocytes, human DMVECs and human dermal fibroblast cells, 1000 cells/well were plated in low-glucose DMEM containing 1% FBS with or without various growth factors. The assay was ended at day 3 for bovine pituitary cells and at day 4 for all the other cell types. […] Four days later, tumor cell growth was measured by the MTS assay (Promega, Madison, WI), a colorimetric assay that measures metabolic activity of viable cells. […]

U87MG = U87MG proliferation assay; type: cell-based, human
Description: as §1

AML12 liver cells = experiment: AML12 proliferation assay; type: cell-based, mouse
Description: as §1

NIH3T3 fibroblasts = experiment: NIH3T3 proliferation assay; type: cell-based, mouse; conditions: alone or in combination with growth factors
Description: as §1

human dermal fibroblasts = experiment: Human dermal fibroblast proliferation assay; type: cell-based; conditions: alone or in combination with growth factors
Description: as §1

For N[C@H](C=O)[C@@H](O)[C@H](O)[C@H](O)CO [ManN, 2-Amino-2-deoxy-D-mannose], the “additivity with VEGF in promoting BCEC migration” value (BCEC) was “significant additivity with VEGF”, the “additivity with VEGF on proliferation” value [1] was “dose-dependent additivity with VEGF” and the toxicity ([1]; at 5 mM) was “minimal toxicity”. The “protein mass of other N-glycosylated receptors/adhesion molecules” value [2] was “affected as well”, the “growth of Calu6” value (Calu6) was “did not promote growth” and the “growth of U87MG” value (U87MG) was “did not promote growth”. For the same molecule, the “cellular toxicity, sensitivity among cell types” value (AML12 liver cells; 5 mM level of ManN) was “most sensitive”, the “proliferation of AML12” value (AML12 liver cells; alone or in combination with growth factors) was “no increases in proliferation” and the “proliferation of NIH3T3 cells” value (NIH3T3 fibroblasts) was “no increases in proliferation”. The “proliferation of human dermal fibroblasts” value (human dermal fibroblasts) was “no increases in proliferation”.
